From patent publication US10864168B2, “Bioactive delivery vehicles” (The Regents of the University of California, priority 2014, dated 2020)

Tested on: inactivated yeast
Assay: Encapsulation of bioactives into inactivated yeast cells (conventional diffusion, vacuum infusion, pressure)
Type: physicochemical, Saccharomyces cerevisiae
Excerpt: Prior to encapsulation of bioactives, selected strains of both yeast and algal cells are inactivated with a chemical treatment. Chemical inactivation of yeast or algal cells stops the metabolic processes while preserving the structure and chemical composition of the cells. […] The concentration of ethanol is selected based on the results of the previous study. Briefly, 1 gm of yeast or algal cells pellet is suspended in the 35% ethanolic solution of the selected bioactive compound. […] We have determined the % ethanol to achieve sufficient encapsulation of the selected encapsulated bioactive compounds using both the vacuum and high pressure assisted encapsulation process. Yeast or algal cell samples suspended in the ethanolic solution with the bioactive compound are sealed in boilable vacuum bags (Prime Source) at 99% vacuum (Ultravac 250, Koch Equipment LLC). […] The sealed samples are covered with aluminum foil to prevent any photo-degradation of the bioactives and incubated at room temperature (25° C.) for 10 minutes. Samples are emptied into 50 mL centrifuge tubes, centrifuged at 2200 rpm for 10 minutes to pellet the cells and the pelleted cells are washed twice with ethanolic solution (35%) and then five times with excess water to remove unencapsulated bioactives. […] Samples are emptied into 50 mL centrifuge tubes, centrifuged to pellet the cells (2200 rpm for 10 minutes) and the pelleted cells are washed twice with ethanolic solution (35%) and then five times with excess water to remove unencapsulated bioactives. Briefly, yeast or algal samples in a 35% ethanolic solution of the selected bioactive compound are covered with a single layer of aluminum foil to prevent photolysis. Samples are then placed into a rotary incubator at 50° C. and 200 rpm for 24 hours. After removal from the incubator, cells are removed by centrifugation at 2000 rpm for 10 minutes. The supernatant is decanted to isolate the pelleted cells and the pelleted cells are washed as described above to remove unencapsulated bioactives. Cells are sonicated to disrupt the cellular structure. A methanol extraction is utilized to extract the encapsulated bioactives from the disrupted yeast or algal cells. 0.05 g of cells (wet basis) with encapsulated bioactives are sonicated to disrupt cellular structure and subsequently incubated with 1 mL methanol. Samples are then briefly vortexed and centrifuged at 14,000 rpm for 10 minutes. The concentration of bioactive compound dissolved in the organic phase is measured using UV-vis spectrophotometer. […] Measuring loading of these bioactive compounds in various emulsions and nanoparticles has been described. The encapsulation efficiency is determined as follows: [formula] where CE is the mass of extracted bioactive from the cells after encapsulation and CT is the amount of bioactive initially added to the cells. We have developed an innovative bioencapsulation process that provides rapid and efficient infusion of bioactives in isolated cells and lipid bodies. In this process, yeast or algal cells incubated in a solution containing bioactive were subjected to a vacuum (97% vacuum) or mild-high hydrostatic pressure (35-100 MPa) for ˜5-10 minutes. […] The results of these measurements were compared with the conventional process used for encapsulation of bioactive compounds in yeast cells.

Mass of Encapsulated Bioactive in Yeast (100 mM PBS, pH = 6.5, Conventional Diffusion, saturated solution, 35% v/v ethanol): 0.064 mg/g | Mass of Encapsulated Bioactive in Yeast (100 mM PBS, pH = 6.5, HPP (200 MPa), saturated solution, 35% v/v ethanol): 0.242 mg/g | Mass of Encapsulated Bioactive in Yeast (100 mM PBS, pH = 6.5, Vacuum Infusion, saturated solution, 35% v/v ethanol): 0.305 mg/g | Mass of Encapsulated Bioactive in Yeast (2% Tween 20 in 100 mM Tris Buffer, pH = 8, Conventional Diffusion, saturated solution, 35% v/v ethanol): 0.292 mg/g | Mass of Encapsulated Bioactive in Yeast (2% Tween 20 in 100 mM Tris Buffer, pH = 8, HPP (200 MPa), saturated solution, 35% v/v ethanol): 0.415 mg/g | Mass of Encapsulated Bioactive in Yeast (2% Tween 20 in 100 mM Tris Buffer, pH = 8, Vacuum Infusion, saturated solution, 35% v/v ethanol): 0.483 mg/g | Mass of Encapsulated Bioactive in Yeast (Commercial Baker's Yeast, vacuum infused, 35% ethanol): 0.392 mg/g | Mass of Encapsulated Bioactive in Yeast (Conventional Diffusion, Single Loading): 0.134 mg/g | Mass of Encapsulated Bioactive in Yeast (S. Cerevisiae (68-115), lipogenesis Induced, vacuum infused, 35% ethanol): 0.260 mg/g | Mass of Encapsulated Bioactive in Yeast (S. Cerevisiae (68-115), lipogenesis Suppressed, vacuum infused, 35% ethanol): 0.238 mg/g | Mass of Encapsulated Bioactive in Yeast (Vacuum, Dual Loading (curcumin and fisetin added together)): 0.442 mg/g
SMILES: COc1cc(/C=C/C(=O)CC(=O)/C=C/c2ccc(O)c(OC)c2)ccc1O [Curcumin, curcumin]
